Reference: US10100058B2, “Fused heterocyclic compounds as CaM kinase inhibitors” (Gilead Sciences, Inc., priority 2016, dated 2018)

biological target: recombinant CaMKIIδ (Homo sapiens (Human), UniProt Q13557); assay: CaMKIIδ biochemical assay (HTRF); settings: 10 pM CaMKIIδ, 110 nM calmodulin, 12 μM ATP, 1 hour; read-out: CAMKIID-HTRF-384V2 (IC50 - nM)
Description: CaMKIIδ Biochemical Assay
The biochemical activity of recombinant CaMKIIδ was measured by monitoring the phosphorylation of a target peptide using Homogenous Time Resolved Fluorescence (HTRF) technology from CisBio Bioassays.

SMILES	IC50
CCN(CC)C(=O)[C@@H]1CCN1c1cc(C(=O)NC[C@H](C)N(CC)CC)cc(-c2cnn3ccc(-c4cccs4)nc23)n1 [Example 280, N—((S)-2-(diethylamino)propyl)-2-((S)-2-(diethylcarbamoyl)azetidin-1-yl)-6-(5-(thiophen-2-yl)pyrazolo[1,5-a]pyrimidin-3-yl)isonicotinamide]	0.45 nM
COc1cc(C(=O)N2CCCC[C@@H]2CN)cc(-c2cnn3ccc(-c4ccccc4)nc23)n1 [Example 132, (R)-(2-(aminomethyl)piperidin-1-yl)(2-methoxy-6-(5-phenylpyrazolo[1,5-a]pyrimidin-3-yl)pyridin-4-yl)methanone]	32.7 nM
C[C@H](N)CNC(=O)c1ccnc(-c2cnn3ccc(-c4ccccc4)nc23)c1 [Example 44, (S)—N-(2-aminopropyl)-2-(5-phenylpyrazolo[1,5-a]pyrimidin-3-yl)isonicotinamide]	43.1 nM
COc1cc(C(=O)N2CC[C@H](N)C2)cc(-c2cnn3ccc(-c4ccccc4)nc23)n1 [Example 126, (S)-(3-aminopyrrolidin-1-yl)(2-methoxy-6-(5-phenylpyrazolo[1,5-a]pyrimidin-3-yl)pyridin-4-yl)methanone]	65.6 nM
CCN(CC)CCNC(=O)c1cc(-c2cnn3ccc(-c4cccs4)nc23)nc(N2CC(C)(O)C2)c1 [Example 258, N-(2-(diethylamino)ethyl)-2-(3-hydroxy-3-methylazetidin-1-yl)-6-(5-(thiophen-2-yl)pyrazolo[1,5-a]pyrimidin-3-yl)isonicotinamide]	1.07 nM
CCN(CC)[C@@H](C)CNC(=O)c1cc(-c2cnn3ccc(-c4cccs4)nc23)nc(N2CC[C@H]2C(=O)N(C)C)c1 [Example 279, N—((S)-2-(diethylamino)propyl)-2-((S)-2-(dimethylcarbamoyl)azetidin-1-yl)-6-(5-(thiophen-2-yl)pyrazolo[1,5-a]pyrimidin-3-yl)isonicotinamide]	0.17 nM
CCN(CC)[C@@H](C)CNC(=O)c1cc(Nc2ncc[nH]2)nc(-c2cnn3ccc(-c4cccs4)nc23)c1 [Example 241, (S)-2-((1H-imidazol-2-yl)amino)-N-(2-(diethylamino)propyl)-6-(5-(thiophen-2-yl)pyrazolo[1,5-a]pyrimidin-3-yl)isonicotinamide]	1.87 nM
CCOC(=O)Nc1cc(C(=O)NC[C@H](C)N(CC)CC)cc(-c2cnn3ccc(-c4cccs4)nc23)n1 [Example 186, (S)-ethyl (4-((2-(diethylamino)propyl)carbamoyl)-6-(5-(thiophen-2-yl)pyrazolo[1,5-a]pyrimidin-3-yl)pyridin-2-yl)carbamate]	0.23 nM
CCN(CC)[C@@H](C)CNC(=O)c1cc(NC2COC2)nc(-c2cnn3ccc(-c4cccs4)nc23)c1 [Example 193, (S)—N-(2-(diethylamino)propyl)-2-(oxetan-3-ylamino)-6-(5-(thiophen-2-yl)pyrazolo[1,5-a]pyrimidin-3-yl)isonicotinamide]	83.2 nM
COC1CN(c2cc(C(=O)NC[C@H](C)N)cc(-c3cnn4ccc(-c5cccs5)nc34)n2)C1 [Example 171, (S)—N-(2-aminopropyl)-2-(3-methoxyazetidin-1-yl)-6-(5-(thiophen-2-yl)pyrazolo[1,5-a]pyrimidin-3-yl)isonicotinamide]	18.8 nM
CCN(CC)[C@@H](C)CNC(=O)c1cc(OC)nc(-c2cnn3ccc(-c4cccs4)nc23)c1 [Example 112, (S)—N-(2-(diethylamino)propyl)-2-methoxy-6-(5-(thiophen-2-yl)pyrazolo[1,5-a]pyrimidin-3-yl)isonicotinamide]	0.14 nM
CCN(CC)[C@@H](C)CNC(=O)c1cc(-c2cnn3ccc(-c4cccs4)nc23)nc(N2CC[C@@H](C(=O)NC)C2)c1 [Example 311, N—((S)-2-(diethylamino)propyl)-2-((R)-3-(methylcarbamoyl)pyrrolidin-1-yl)-6-(5-(thiophen-2-yl)pyrazolo[1,5-a]pyrimidin-3-yl)isonicotinamide]	0.23 nM
CCN(CC)[C@@H](C)CNC(=O)c1cc(NCCS(N)(=O)=O)nc(-c2cnn3ccc(-c4cccs4)nc23)c1 [Example 242, (S)—N-(2-(diethylamino)propyl)-2-((2-sulfamoylethyl)amino)-6-(5-(thiophen-2-yl)pyrazolo[1,5-a]pyrimidin-3-yl)isonicotinamide]	0.07 nM
CCC(CNC(=O)c1ccnc(-c2cnn3ccc(-c4cccs4)nc23)c1)NC(C)C (stereo not drawn) [Example 31, N-(2-(isopropylamino)butyl)-2-(5-(thiophen-2-yl)pyrazolo[1,5-a]pyrimidin-3-yl)isonicotinamide]	12.1 nM
O=C(c1ccnc(-c2cnn3ccc(-c4cccs4)nc23)c1)N1CC2CCC[C@@H](C1)NC2 [Example 77, ((1S)-3,9-diazabicyclo[3.3.2]decan-3-yl)(2-(5-(thiophen-2-yl)pyrazolo[1,5-a]pyrimidin-3-yl)pyridin-4-yl)methanone]	2.7 nM
CCN(CC)[C@@H](C)CNC(=O)c1cc(N)nc(-c2cnn3ccc(-c4cccs4)nc23)c1 [Example 102, (S)-2-amino-N-(2-(diethylamino)propyl)-6-(5-(thiophen-2-yl)pyrazolo[1,5-a]pyrimidin-3-yl)isonicotinamide]	0.04 nM
CCN(CC)[C@@H](C)CNC(=O)c1cc(-c2cnn3ccc(-c4cccs4)nc23)nc(N2CC[C@H]2C(=O)N2CC(F)(F)C2)c1 [Example 294, N—((S)-2-(diethylamino)propyl)-2-((S)-2-(3,3-difluoroazetidine-1-carbonyl)azetidin-1-yl)-6-(5-(thiophen-2-yl)pyrazolo[1,5-a]pyrimidin-3-yl)isonicotinamide]	0.22 nM
CCN(CC)[C@@H](C)CNC(=O)c1cc(-c2cnn3ccc(-c4cccs4)nc23)nc(N2CCC[C@@H]2C(F)(F)F)c1 [Example 251, N—((S)-2-(diethylamino)propyl)-2-(5-(thiophen-2-yl)pyrazolo[1,5-a]pyrimidin-3-yl)-6-((R)-2-(trifluoromethyl)pyrrolidin-1-yl)isonicotinamide]	2.05 nM
CCN(CC)[C@@H](C)CNC(=O)c1cc(-c2cnn3ccc(-c4cccs4)nc23)nc(N2CC[C@@H](C#N)C2)c1 [Example 312, 2-((R)-3-cyanopyrrolidin-1-yl)-N—((S)-2-(diethylamino)propyl)-6-(5-(thiophen-2-yl)pyrazolo[1,5-a]pyrimidin-3-yl)isonicotinamide]	0.21 nM
CCN(CC)[C@@H](C)CNC(=O)c1cc(NCC(N)=O)nc(-c2cnn3ccc(-c4cccs4)nc23)c1 [Example 238, (S)-2-((2-amino-2-oxoethyl)amino)-N-(2-(diethylamino)propyl)-6-(5-(thiophen-2-yl)pyrazolo[1,5-a]pyrimidin-3-yl)isonicotinamide]	0.28 nM
CCN(CC)[C@@H](C)CNC(=O)c1cc(-c2cnn3ccc(-c4cccs4)nc23)nc(N2CC[C@H]2C(=O)O)c1 [Example 296, (S)-1-(4-(((S)-2-(diethylamino)propyl)carbamoyl)-6-(5-(thiophen-2-yl)pyrazolo[1,5-a]pyrimidin-3-yl)pyridin-2-yl)azetidine-2-carboxylic Acid]	1.93 nM
CCN(CC)[C@@H](CO)CNC(=O)c1cc(-c2cnn3ccc(-c4cccs4)nc23)nc(N2CC[C@H]2C(=O)NC)c1 [Example 359, N—((R)-2-(diethylamino)-3-hydroxypropyl)-2-((S)-2-(methylcarbamoyl)azetidin-1-yl)-6-(5-(thiophen-2-yl)pyrazolo[1,5-a]pyrimidin-3-yl)isonicotinamide]	0.35 nM
O=C(NC[C@H]1CCN1)c1ccnc(-c2cnn3ccc(-c4cccs4)nc23)c1 [Example 8, (R)—N-(azetidin-2-ylmethyl)-2-(5-(thiophen-2-yl)pyrazolo[1,5-a]pyrimidin-3-yl)isonicotinamide]	10 nM
CCN(CC)[C@@H](C)CNC(=O)c1cc(-c2cnn3ccc(-c4cccs4)nc23)nc(N2CC[C@H]2C(=O)N2CCCC2)c1 [Example 288, N—((S)-2-(diethylamino)propyl)-2-((S)-2-(pyrrolidine-1-carbonyl)azetidin-1-yl)-6-(5-(thiophen-2-yl)pyrazolo[1,5-a]pyrimidin-3-yl)isonicotinamide]	0.29 nM
CCN(CC)[C@@H](C)CNC(=O)c1ccnc(-c2cnn3ccc(-c4ccccc4)nc23)c1 [Example 38, (S)—N-(2-(diethylamino)propyl)-2-(5-phenylpyrazolo[1,5-a]pyrimidin-3-yl)isonicotinamide]	2.08 nM
C[C@@H](NC(=O)c1ccnc(-c2cnn3ccc(-c4cccs4)nc23)c1)[C@@H]1CCCN1 [Example 13, N—((R)-1-((S)-pyrrolidin-2-yl)ethyl)-2-(5-(thiophen-2-yl)pyrazolo[1,5-a]pyrimidin-3-yl)isonicotinamide]	153 nM
CCCC(N)CNC(=O)c1ccnc(-c2cnn3ccc(-c4ccccc4)nc23)c1 (stereo not drawn) [Example 48, N-(2-aminopentyl)-2-(5-phenylpyrazolo[1,5-a]pyrimidin-3-yl)isonicotinamide]	25.7 nM
C[C@@H]1CNCCN1C(=O)c1ccnc(-c2cnn3ccc(-c4cccs4)nc23)c1 [Example 84, (R)-(2-methylpiperazin-1-yl)(2-(5-(thiophen-2-yl)pyrazolo[1,5-a]pyrimidin-3-yl)pyridin-4-yl)methanone]	17.5 nM
CCN(CC)[C@@H](C)CNC(=O)c1cc(-c2cnn3ccc(-c4cccs4)nc23)nc(N2CC(S(=O)(=O)NC)C2)c1 [Example 150, (S)—N-(2-(diethylamino)propyl)-2-(3-(N-methylsulfamoyl)azetidin-1-yl)-6-(5-(thiophen-2-yl)pyrazolo[1,5-a]pyrimidin-3-yl)isonicotinamide]	0.2 nM
CCN(CC)[C@@H](C)CNC(=O)c1cc(N[C@H]2CCOC2)nc(-c2cnn3ccc(-c4cccs4)nc23)c1 [Example 203, N—((S)-2-(diethylamino)propyl)-2-(((S)-tetrahydrofuran-3-yl)amino)-6-(5-(thiophen-2-yl)pyrazolo[1,5-a]pyrimidin-3-yl)isonicotinamide]	0.18 nM
